{"source": "patent US10350244B2", "about": "“Pharmaceutical composition for the treatment of diseases in which LPS- and/or apoptosis regulation is disturbed” (priority 2013, dated 2019)", "assay_type_in_all_cases": "cell-based, human", "key": {"MNC [1]": {"test_system": "MNC", "assay": "IGF-1 protein determination (ELISA) in MNC incubations", "excerpt": "(§1) Peripheral blood mononuclear cells (PBMC, i.e., mononuclear cells (MNC)). This refers to mononuclear blood cells which have a round cell nucleus. These are, for example, lymphocytes and monocytes. Said cells play an important role in the immune system in controlling infections. PBMC or MNC are frequently employed in diagnostics as an indicator for infections which are present, as a factor for prognosing the course of an HIV infection and in clinical research. From the blood and sera collection of the tumor tissue bank and the tumor cells of an individual tumor patient that were likewise stored in said bank, they were, after passing through a specific thawing/revitalization procedure, examined for their protein and gene expression, apoptosis behavior and their released messenger substances (cytokine profiles) under the influence of the colostrum preparation Lactobin® N, vitamin D3 and also the combination in a specifically selected repertoire of methods.\nThe examinations were carried out in order to detect the cytokine insulin-like growth factor 1 (IGF-1) present in the samples. To this end, use was made of enzyme-linked immunosorbent assay (ELISA) sets (from Biosource International, California, USA) in accordance with the protocol instructions from the manufacturer. 50 μl of standard sample, control and the samples were pipetted per well into 96-well plates coated with anti-IGF-1. Thereafter, 50 μl of biotin conjugate (second antibody against IGF-1) were added. Subsequently, the plates were incubated at room temperature for 90 min, washed four times, and 100 μl of streptavidin-HRP working solution were pipetted into the wells and the plate was incubated at room temperature for 45 min. Thereafter, the plates were again washed four times, 100 μl of stabilized chromogen were added and incubated at room temperature for 30 min. Lastly, 100 μl of stop solution were pipetted. The results were read off on the ELISA reader at 450 nm (Dynatech Laboratories, Sullyfield, USA).\nTo prepare a preparation according to the invention, the above-described colostrum powder (preferably Lactobin N) was admixed with an appropriate amount of the vitamin D3-containing powder, achieving the inventive concentration of vitamin D3. A mixing ratio used according to the invention was 0.2 mg of the vitamin D3-containing powder per gram of colostrum powder (0.2 mg/g). This yielded 0.5 μg of vitamin D3/g of ready-made preparation for the samples. A recommended daily dose is 10 g of ready-made preparation, i.e., 5 μg of vitamin D3. […] Similarly, only the vitamin D3 preparation was used when the samples were treated only with vitamin D3 (e.g., “Vit. D3” in Table 1)."}, "MNC [2]": {"test_system": "MNC", "assay": "Cytokine production by MNC after incubation (Luminex immunobead multiplex assay)", "excerpt": "as §1\n(§2) After collection, EDTA tubes were left to stand at room temperature (RT) for 60 min. Thereafter, serum was removed, divided into portions (1 ml/tube) and stored in −80° C. The blood was centrifuged at 311 g for 10 min. Thereafter, 1 part whole blood+5 parts lysis buffer were mixed, left to stand at RT for 15 min and then centrifuged at 311 g for 10 min. The supernatant was discarded and the pellet was washed with RPMI 1640 medium (repeated 3×). The cells were then counted and frozen at −170° C. in nitrogen at 5×10^6/ml (freezing medium: RPMI 1640 medium containing 5% DMSO, dimethyl sulfoxide=cryopreservation). In addition, the immune status was measured from one tube (FACS analysis, see below).\nThe cryotube to be thawed was removed from the nitrogen and immediately transferred to a 37° C. water bath. Once the cells had detached from the inner wall of the cryotube (1-1.5 min), they were transferred to a sterile 50 ml Falcon tube containing 40 ml of cold medium. After a 5-minute centrifugation at 400 g, the medium was removed, the cell pellet was resuspended in 6 ml of warmed-up medium and the cells were counted. […]\nInterleukin (IL)-12 and proinflammatory factors such as […], IL-6, IFN-γ, TNF-α and anti-inflammatory factors such as IL-10 and IL-13 in the serum samples were measured in duplicate using an immunobead-based multiplex assay. The assays were carried out on a Bio-Plex system (Biosource).\nThe microspheres coated with mixtures of corresponding capture antibodies and the labeled detection antibodies were purchased from Biosource (Camarillo, […]). The reagents had already been tested and qualified by the manufacturer to rule out a cross-reactivity of the antibody-coated microspheres.\nThe Luminex measurements were carried out in order to determine further expressed MNC cytokines. 25 μl of antibody-coated microspheres were added to 96-well plates [mixture of the cytokines GM-CSF, IFN-γ, IL-1β, IL-2, IL-4, IL-5, IL-6, IL-8, IL-10 and TNF-α; ready-prepared kit, from Biosource International, California, USA]. After washing had been carried out twice, 50 μl of incubation buffer, 50 μl of ready-prepared sample dilution and 50 μl of sample were pipetted into each well. The plates were incubated in the dark on a shaker for 2 hours at room temperature and again washed twice. Thereafter, 100 μl of the biotinylated detection antibody were added to each well, incubated in the dark on a shaker for a further hour at room temperature, and again washed twice. 100 μl of SAV-RPE (R-phycoerythrin fluorescent dye, from Biosource International) were pipetted into each well, the plates were again shaken in the dark for 30 min at room temperature and washed three times. Each assay preparation was adjusted with 100 μl of wash buffer per well as the final volume and the plates were measured in the Luminex reader (Luminex 100, from Luminex Applied Systems, Sheffield, UK). […]"}, "[3]": {"test_system": "monocytes from the blood of patients with CRC", "assay": "Gene expression in MNC/monocytes from blood of CRC patients (RT-qPCR)", "conditions": "monocytes from blood of CRC patients UICC I to IV, 12-hour incubation, synergism in UICC I-III, FIG. 5", "description": "as §2\nRNA was extracted from MNCs and homogenized tumor tissue using the RNA Extraction Kit (Qiagen, Hilden, Germany), washed in DEPC 75% ethanol solution and then stored at −70° C. until it was processed further. The amount of RNA was determined by measuring absorption at 260 nm. The 260:280 ratio was determined within the 1.8-2.0 range; it was thus possible to prevent a contamination of the RNA by proteins. […]\nThe ‘real-time reverse transcription polymerase chain reaction’ method (real-time RT-PCR for short) is used for determining the expression of various genes. Said method allows the quantification of the expression of a gene in question in relation to the control genes. […]"}, "[4]": {"conditions": "MNC of CRC patients UICC I (n = 6)"}, "[5]": {"conditions": "MNC of CRC patients UICC II (n = 6)"}, "[6]": {"conditions": "MNC of CRC patients UICC III (n = 6)"}, "[7]": {"conditions": "MNC of CRC patients UICC IV (n = 6)"}}}
{"smiles": "C=C1CC[C@H](O)C/C1=C/C=C1\\CCC[C@]2(C)[C@@H]([C@H](C)CCCC(C)C)CC[C@@H]12", "note": "[Vit D3, cholecalciferol]", "values": [{"measurement": "IGF-1", "setting": "MNC [1]; [4]", "result": 148.6, "unit": "ng/mL"}, {"measurement": "IGF-1", "setting": "MNC [1]; [5]", "result": 213.4, "unit": "ng/mL"}, {"measurement": "IGF-1", "setting": "MNC [1]; [6]", "result": 299.1, "unit": "ng/mL"}, {"measurement": "IGF-1", "setting": "MNC [1]; [7]", "result": 896.4, "unit": "ng/mL"}, {"measurement": "IGF-1", "setting": "MNC [1]; MNC of Control (n = 6)", "result": 90.3, "unit": "ng/mL"}, {"measurement": "IFN-γ", "setting": "MNC [2]; [4]", "result": 58.5, "unit": "pg/mL"}, {"measurement": "IL-1β", "setting": "MNC [2]; [4]", "result": 42.5, "unit": "pg/mL"}, {"measurement": "IL-6", "setting": "MNC [2]; [4]", "result": 98.7, "unit": "pg/mL"}, {"measurement": "IL-10", "setting": "MNC [2]; [4]", "result": 18.3, "unit": "pg/mL"}, {"measurement": "IL-12", "setting": "MNC [2]; [4]", "result": 74.9, "unit": "pg/mL"}, {"measurement": "IL-13", "setting": "MNC [2]; [4]", "result": 30.1, "unit": "pg/mL"}, {"measurement": "TNF-α", "setting": "MNC [2]; [4]", "result": 83.6, "unit": "pg/mL"}, {"measurement": "IFN-γ", "setting": "MNC [2]; [5]", "result": 77.3, "unit": "pg/mL"}, {"measurement": "IL-1β", "setting": "MNC [2]; [5]", "result": 34.8, "unit": "pg/mL"}, {"measurement": "IL-6", "setting": "MNC [2]; [5]", "result": 102.8, "unit": "pg/mL"}, {"measurement": "IL-10", "setting": "MNC [2]; [5]", "result": 18.1, "unit": "pg/mL"}, {"measurement": "IL-12", "setting": "MNC [2]; [5]", "result": 80.1, "unit": "pg/mL"}, {"measurement": "IL-13", "setting": "MNC [2]; [5]", "result": 27.9, "unit": "pg/mL"}, {"measurement": "TNF-α", "setting": "MNC [2]; [5]", "result": 169.1, "unit": "pg/mL"}, {"measurement": "IFN-γ", "setting": "MNC [2]; [6]", "result": 215.9, "unit": "pg/mL"}, {"measurement": "IL-1β", "setting": "MNC [2]; [6]", "result": 169.4, "unit": "pg/mL"}, {"measurement": "IL-6", "setting": "MNC [2]; [6]", "result": 91.7, "unit": "pg/mL"}, {"measurement": "IL-10", "setting": "MNC [2]; [6]", "result": 17.9, "unit": "pg/mL"}, {"measurement": "IL-12", "setting": "MNC [2]; [6]", "result": 214.7, "unit": "pg/mL"}, {"measurement": "IL-13", "setting": "MNC [2]; [6]", "result": 26.1, "unit": "pg/mL"}, {"measurement": "TNF-α", "setting": "MNC [2]; [6]", "result": 331.5, "unit": "pg/mL"}, {"measurement": "IFN-γ", "setting": "MNC [2]; [7]", "result": 292.5, "unit": "pg/mL"}, {"measurement": "IL-1β", "setting": "MNC [2]; [7]", "result": 369.9, "unit": "pg/mL"}, {"measurement": "IL-6", "setting": "MNC [2]; [7]", "result": 213.1, "unit": "pg/mL"}, {"measurement": "IL-10", "setting": "MNC [2]; [7]", "result": 7.9, "unit": "pg/mL"}, {"measurement": "IL-12", "setting": "MNC [2]; [7]", "result": 499.9, "unit": "pg/mL"}, {"measurement": "IL-13", "setting": "MNC [2]; [7]", "result": 9.1, "unit": "pg/mL"}, {"measurement": "TNF-α", "setting": "MNC [2]; [7]", "result": 413.1, "unit": "pg/mL"}, {"measurement": "IFN-γ", "setting": "MNC [2]; MNC of Control (n = 6)", "result": 12.8, "unit": "pg/mL"}, {"measurement": "IL-1β", "setting": "MNC [2]; MNC of Control (n = 6)", "result": 4.8, "unit": "pg/mL"}, {"measurement": "IL-6", "setting": "MNC [2]; MNC of Control (n = 6)", "result": 3.3, "unit": "pg/mL"}, {"measurement": "IL-10", "setting": "MNC [2]; MNC of Control (n = 6)", "result": 27.9, "unit": "pg/mL"}, {"measurement": "IL-12", "setting": "MNC [2]; MNC of Control (n = 6)", "result": 47.7, "unit": "pg/mL"}, {"measurement": "IL-13", "setting": "MNC [2]; MNC of Control (n = 6)", "result": 43.6, "unit": "pg/mL"}, {"measurement": "TNF-α", "setting": "MNC [2]; MNC of Control (n = 6)", "result": 62.6, "unit": "pg/mL"}, {"measurement": "expression of the IGF-1 gene in MNC", "setting": "[3]", "result": "drop in the gene expression profile"}]}
